Assays:
[1] = Inhibition of HCV J4 genotype 1b NS5Bdelta21 polymerase using homopolymeric RNA by SYBR Green assay; parameters: species or system Hepatitis C virus subtype 1b
[2] = tested on: Hepatitis C virus subtype 1b; experiment: Inhibition of HCV J4 genotype 1b NS5Bdelta21 polymerase using homopolymeric RNA at 20 uM by SYBR Green assay

Row | Compound | IC50 [1] | inhibition [2]
1 | O=C1/C(=C/c2ccc(-c3cccs3)cc2)Oc2cc(O)cc(O)c21 | 4 µM | 97%
2 | CCCCn1cc(/C=C2\Oc3cc(O)cc(O)c3C2=O)c2cc(OC)ccc21 | – | 93.8%
3 | CCCCn1c(C)c(/C=C2\Oc3cc(O)cc(O)c3C2=O)c2ccccc21 | – | 91.6%
4 | CCCCn1cc(/C=C2\Oc3cc(O)cc(O)c3C2=O)c2cc(O)ccc21 | – | 53.5%
5 | O=C1/C(=C/c2ccc(C(F)(F)F)cc2)Oc2cc(O)cc(O)c21 | 5.4 µM | 96%
6 | CC(C)=CCn1cc(/C=C2\Oc3cc(O)cc(O)c3C2=O)c2ccccc21 | 3 µM | 94.7%
7 | Cc1cccc(Cn2cc(/C=C3\Oc4cc(O)cc(O)c4C3=O)c3ccccc32)c1 | 2.6 µM | 95.6%
8 | O=C1/C(=C/c2ccc3[nH]cnc3c2)Oc2cc(O)cc(O)c21 | 10 µM | 81%
9 | O=C1/C(=C/c2cn(Cc3cccc(O)c3)c3ccccc23)Oc2cc(O)cc(O)c21 | 2.4 µM | 99.3%
10 | CCCCn1cc(/C=C2\Oc3cc(O)cc(O)c3C2=O)c2cc(C)ccc21 | – | 96%
11 | O=C1/C(=C/c2ccco2)Oc2cc(O)cc(O)c21 | > 16 µM | 27%
12 | O=C1/C(=C/c2ccc(N3CCCCC3)cc2)Oc2cc(O)cc(O)c21 | 5.5 µM | 93%
13 | O=C1/C(=C/c2ccc(-c3ccccc3)cc2)Oc2cc(O)cc(O)c21 | 4 µM | 93%
14 | CN(C)c1ccc(/C=C2\Oc3cc(O)cc(O)c3C2=O)cc1 | 5 µM | 90%
15 | CCCCOc1ccc(/C=C2\Oc3cc(O)cc(O)c3C2=O)cc1 | – | 81%
16 | CCCCn1cc(/C=C2\Oc3cc(O)cc(O)c3C2=O)c2cccc(OC)c21 | – | 93.1%
17 | O=C1/C(=C/c2cccc3ccccc23)Oc2cc(O)cc(O)c21 | – | 45%
18 | O=C1/C(=C/c2ccc(CO)o2)Oc2cc(O)cc(O)c21 | > 16 µM | 33%
19 | CCCCn1c(/C=C2\Oc3cc(O)cc(O)c3C2=O)cc2ccccc21 | 3 µM | 98.4%

Row | Compound | IC50 [1] | inhibition [2]
20 | CC(C)Cn1cc(/C=C2\Oc3cc(O)cc(O)c3C2=O)c2ccccc21 | 8 µM | 80.7%
21 | O=C1/C(=C/c2cn(Cc3cccc(Br)c3)c3ccccc23)Oc2cc(O)cc(O)c21 | 2.4 µM | 96%
22 | Cn1cc(/C=C2\Oc3cc(O)cc(O)c3C2=O)c2ccccc21 | 6 µM | 90%
23 | O=C1/C(=C/c2cnc[nH]2)Oc2cc(O)cc(O)c21 | > 16 µM | 39%
24 | CCCCn1ccc2cc(/C=C3\Oc4cc(O)cc(O)c4C3=O)ccc21 | – | 94.3%
25 | O=C1/C(=C/c2ccc3ccccc3n2)Oc2cc(O)cc(O)c21 | – | 42%
26 | Cn1cccc1/C=C1\Oc2cc(O)cc(O)c2C1=O | > 16 µM | 55%
27 | O=C1/C(=C/c2cn(CCc3ccccc3)c3ccccc23)Oc2cc(O)cc(O)c21 | 3.2 µM | 93.9%
28 | Cn1c(/C=C2\Oc3cc(O)cc(O)c3C2=O)cc2ccccc21 | 3.1 µM | 97.8%
29 | CCCCn1cc(/C=C2\Oc3cc(O)cc(O)c3C2=O)c2cccc(C)c21 | – | 92.5%
30 | CCCCOc1ccc(/C=C2\Oc3cc(O)cc(O)c3C2=O)c(OCCCC)c1 | 4 µM | 90%
31 | O=C1/C(=C/c2ccc3ccccc3c2)Oc2cc(O)cc(O)c21 | 3.4 µM | 95%
32 | O=C1/C(=C/c2cn(Cc3ccccc3)c3ccccc23)Oc2cc(O)cc(O)c21 | 2.6 µM | 96.2%
33 | O=C1/C(=C/c2cn(CCCc3ccccc3)c3ccccc23)Oc2cc(O)cc(O)c21 | 2.7 µM | 93%
34 | O=C1/C(=C/c2cn(CC3CCCCC3)c3ccccc23)Oc2cc(O)cc(O)c21 | 3.3 µM | 93%
35 | CCCCn1cc(/C=C2\Oc3cc(O)cc(O)c3C2=O)c2cccc(O)c21 | 2.3 µM | 98.9%
36 | COc1cccc(Cn2cc(/C=C3\Oc4cc(O)cc(O)c4C3=O)c3ccccc32)c1 | 2.7 µM | 95.4%
37 | O=C(O)CCCn1cc(/C=C2\Oc3cc(O)cc(O)c3C2=O)c2ccccc21 | – | 70%

— ChEMBL document CHEMBL3259757, “B-ring modified aurones as promising allosteric inhibitors of hepatitis C virus RNA-dependent RNA polymerase” (Eur J Med Chem, 2014)
